Results taken from ChEMBL document CHEMBL3507680, “University of Dundee, Gates Library screen for HepG2 cell viability”.

Test: Human HepG2 cell viability assay in 384 well format
Format: toxicity, cell-based
Parameters: dose 125 nL, time 70.5 hour; cytotoxicity at 70.5 h: concentration not given beside the values
Settings: HepG2 cells, read-out: Inhibition

| SMILES | cytotoxicity at 70.5 h |
| --- | --- |
| O=C(c1ccnnc1)N1CCN(Cc2ccncc2)c2ncccc2C1 | -6.87% |
| CC(Cc1ccccc1Cl)NC(=O)Nc1cnn(CC(N)=O)c1 (configuration not stated) | -2.99% |
| COc1cc(NC(=O)N2CCCC2c2nncn2C)ccc1Br (configuration not stated) | -4.18% |
| CCCNC(=O)N1CCC(c2nnc(Cn3cccn3)n2C2CC2)CC1 | -10.5% |
| COCCN1CCCC(c2ccnc3c(C(N)=O)cnn23)C1 (configuration not stated) | 3.17% |
| N#Cc1cccc(CNCCNC(=O)Cc2cccc(F)c2)c1 | 26.7% |
| CN1CCN(CCCNC(=O)C2CCCCC2)CC1 | 12.1% |
| COCCCNC(=O)CN(C)C1CCCN(c2cccnn2)C1 (configuration not stated) | -6.82% |
| CCOc1cc(CN(C)CCOC)ccc1OC(F)F | 12.4% |
| Nc1ncnc2c1ncn2[C@H]1CCN(Cc2ccsc2)CC[C@@H]1O | -6.05% |
| Cc1ccc(C(=O)N2CCOCC2)cc1NCc1ccsc1 | -12.3% |
| Cc1ccc(C2CN(Cc3cnc(-c4cccnc4)s3)CCO2)o1 (configuration not stated) | 7.31% |
| Cc1nnc(NC(=O)NC(C)Cn2cccn2)s1 (configuration not stated) | -7.53% |
| CCC1CN(CCC(=O)N(C)C)CCN1CCOC (configuration not stated) | -8.66% |
| Oc1nc(N2CCCC2)nc2c1CCN(Cc1cccnc1)CC2 | -5.83% |
| Cc1ccc([C@@H]2CN(C(=O)c3ccoc3C)C[C@H]2NC(=O)C2CC2)cc1 | 30.5% |
| NC(=O)CSCCC(=O)N1CCCC1c1ccsc1 (configuration not stated) | -6.66% |
| Cc1ccc(C(=O)N2CCN3C[C@H](Oc4cccc(F)c4)C[C@H]3C2)cn1 | -2.95% |
| COc1cc(N2CCCC(c3nccn3Cc3cscn3)C2)nc(N)n1 (configuration not stated) | -8.38% |
| OC1(CN2CCCC2)COCCN(c2nccs2)C1 (configuration not stated) | 37.8% |
| CC(C)Cc1cc(CNC(=O)c2cccc3c2OCC3)no1 | -9.93% |
| CN1CCCC2(CCN(C(=O)CCn3cncn3)C2)C1=O (configuration not stated) | -10.5% |
| CC(C)c1cc(NC(=O)CN2CCn3c(nnc3C3CC3)C2)on1 | 19.6% |
| CC(=O)N1CCCN(C(=O)c2ccc(Cn3ccccc3=O)o2)CC1 | 2.33% |

| SMILES | cytotoxicity at 70.5 h |
| --- | --- |
| CC(=O)NCCNC(=O)c1sc(-c2ccc(Cl)s2)nc1C | 28.8% |
| O=C(COCCOc1ccccc1)NC1CCN(c2ncccn2)CC1 | 41.6% |
| Cc1oc(-c2ccco2)nc1CN1CCc2cncnc2C1 | -1.22% |
| Cn1cc(-c2ccc(C3CCCCN3Cc3cccnc3)cn2)cn1 (configuration not stated) | -1.27% |
| COCc1noc(CCNc2nc(CC3CC3)nc3c2CCNCC3)n1 | 8.9% |
| CC1NC(=O)COC12CCN(C(=O)Cc1ccsc1)CC2 (configuration not stated) | 4.29% |
| CC(C)N(CCCNC(=O)C1CC(=O)N(C)C1)S(C)(=O)=O (configuration not stated) | 33.7% |
| O=C(c1ccccc1)N1CCC2(CC1)CC(Oc1ccccc1)CO2 (configuration not stated) | -11.5% |
| O=C(O)c1cncc(Cc2ccccc2F)c1 | -6.6% |
| CN(Cc1ccccc1OC(F)(F)F)C(=O)C1CCCN(C(N)=O)C1 (configuration not stated) | -6.37% |
| CCc1nc(CN2CCN(C(=O)N3CCCCC3)CC2)cs1 | 21.4% |
| COc1cc(F)c(NC(=O)N(C)CCNC(=O)N(C)C)cc1F | -0.221% |
| O=C(NCCC1CN(Cc2cccnc2)CCO1)c1ccsc1 (configuration not stated) | 6.62% |
| Cc1nc(CN(C)C2CCN(CC3CCOCC3)C2)no1 (configuration not stated) | -2.15% |
| COc1ccccc1-c1cc(C(=O)Nc2nc[nH]n2)[nH]n1 | -12.9% |
| CNC(=O)Cc1ccccc1NC(=O)C1CCN(C2CCCCC2)C1 (configuration not stated) | -7.23% |
| CCn1nc(C)c(CCNC(=O)C2CCCN(C(C)=O)C2)c1C (configuration not stated) | -8.81% |
| O=C(c1c[nH]c2ncccc12)N(Cc1ccco1)C1CCCC1 | -3.94% |
| COC(=O)c1ccc(S(=O)(=O)NCc2cccnc2N(C)C)cc1 | 29.6% |
| CCCc1cc(C(=O)NCCC2=CCCCC2)[nH]n1 | -9.53% |
| O=S(=O)(NCCNc1ccc(-n2cccn2)nn1)c1ccccc1 | -2.97% |
| COc1cccc(F)c1CN1CCC(c2nccc(C)n2)C1 (configuration not stated) | -9.63% |
| CC(C)c1nnc(CN2CCCC(c3cc(C(N)=O)[nH]n3)C2)o1 (configuration not stated) | 26.9% |
